Data published in patent US20250129012A1, “ANTI-INFLAMMATORY AND ANALGESIC COMPOUNDS AND USE THEREOF” (JIANGSU ATOM BIOSCIENCE AND PHARMACEUTICAL CO., LTD., priority 2021, published 2025).
Like-named read-outs stand apart in the source and are kept apart here. Marks after values point to notes of the source that are not given here.

Key:
Assay type in all cases: in vivo, SD rats
[1] = test system: gouty arthritis rats (sodium urate, right ankle and knee joint cavities); experiment: Pharmacodynamics experiment B on gouty arthritis rats: ankle swelling rate; conditions: Rattus norvegicus, po, read-out: Swelling rate (ankle)
Method: (§1) Compounds 12, 16, 19, 30, 34, 36, 38, 40, 44, 48, 49, 52, 58, 69, 83, 98, 102, 119, 121, and 122 were prepared by grinding with 0.5% CMC-Na prior to administration and formulated into suspensions of appropriate concentration (0.12 mg/mL) for gavage, with an administered dose of 0.5 mL/100 g.
(§2) 240 SD rats, males, were acclimatized for one week and weighed 180-220 g. […] The dose of each compound group was 0.6 mg/kg. The compounds in each group were prepared into the corresponding concentration suspension, and the volume of administration was 10 mL/kg.
(§3) 250 mg of sodium urate were added to 9 mL of saline, and 1 mL of Tween-80 solution was added, the resulting mixture was heated and stirred to formulate 10 mL of sodium urate solution. The rats were grasped and fixed, and 0.2 mL of sodium urate solution was injected into the right ankle and knee joint cavities respectively to establish gouty arthritis rat model.
(§4) Before modeling, positive drug and tested compounds were pre-administered for 7 days, once a day, and modeling was performed on day 8, and drug administration by gavage continued for 3 days after modeling.
Before modeling and 2 h, 4 h, 8 h, 10 h, 24 h and 48 h after modeling, the circumference of the right ankle joint was measured using a soft ruler or the volume change at the ankle was measured (volumetric method), and the swelling degree and swelling rate of ankle joint were calculated:
Swelling degree (mm)=measured circumference (mm)−baseline circumference (mm)
Swelling rate (%)=swelling degree (mm)/baseline circumference (mm)×100%
(§5) Each experimental data was expressed as the mean, and intergroup comparisons were examined for significance using the ANOVA-Dunnett T-test, with P<0.05 as the significance indicator.

[2] = test system: TNF-α; experiment: Inflammatory factor experiment B: TNF-α in knee synovial tissue (ELISA); conditions: Rattus norvegicus, po, 48 h, read-out: TNF-α percentage decrease %
[3] = test system: gouty arthritis rats (sodium urate, right ankle and knee joint cavities); experiment: Pharmacodynamics experiment B on gouty arthritis rats: gait score; conditions: for Gait Score: dose 0.6 mg/kg gavage, mean; for Gait versus model group, in words: compounds 0.6 mg/kg, colchicine 0.6 and 1.2 mg/kg
Method: as §1, §2, §3, §4
Gait was scored according to the modified gait grading criteria introduced by Coderre et al. The gait of each rat was observed before and 2 h, 4 h, 8 h, 10 h, 24 h and 48 h after modeling and graded scoring was performed. The gait grading criteria were as follows: 0 point, normal walking; 1 point, slight lameness, the lower limbs were slightly bent; 2 points: moderate lameness, the lower limbs just touched the ground; 3 points, severe lameness, the lower limbs left the ground, and walked on three feet. The mean score of each group was calculated and compared with that of the model group.
as §5

[4] = test system: IL-1β; experiment: Inflammatory factor experiment B: IL-1β in knee synovial tissue (ELISA); conditions: Rattus norvegicus, po, 48 h, read-out: IL-1β percentage decrease %
[5] = test system: IL-6; experiment: Inflammatory factor experiment B: IL-6 in knee synovial tissue (ELISA); conditions: Rattus norvegicus, po, 48 h, read-out: IL-6 percentage decrease %

SMILES | change in vivo at 0.6 mg/kg ([1]; 2 h) [%] | change in vivo at 0.6 mg/kg ([1]; 4 h) [%] | change in vivo at 0.6 mg/kg ([1]; 8 h) [%] | change in vivo at 0.6 mg/kg ([1]; 10 h) [%] | change in vivo at 0.6 mg/kg ([1]; 24 h) [%] | change in vivo at 0.6 mg/kg ([1]; 48 h) [%] | inhibition in vivo at 0.6 mg/kg [2] [%] | Gait Score ([3]; 2 h) | Gait Score ([3]; 4 h) | Gait Score ([3]; 8 h) | Gait Score ([3]; 10 h) | Gait Score ([3]; 24 h) | Gait Score ([3]; 48 h) | Gait versus model group, in words [3] | inhibition in vivo at 0.6 mg/kg [4] [%] | inhibition in vivo at 0.6 mg/kg [5] [%]
COc1cc2c(c(OC)c1OC)-c1ccc(=O)c(O[C@H]3CCOC3)cc1[C@@H](NC(C)=O)CC2 [Compound 19, N—{(S)-1,2,3-trimethoxy-10-oxo-9-{[(S)-tetrahydrofuran-3-yl]oxy}-5,6,7,10-tetrahydrobenzo[a]heptalen-7-yl}acetamide] | 8.77 | 10.9 | 17.1 | 14.1 | 19.4 | 7.77 | 84.7 | 0.0 | 0 | 0** | 0** | 0.2 | 0.1 | significant improvement in gait occurred at different time points | 81.5 | 98.1
COc1cc2c(c(OC)c1OC)-c1ccc(C#N)c(=O)cc1[C@@H](NC(C)=O)CC2 [Compound 38, (S)—N-(10-cyano-1,2,3-trimethoxy-9-oxo-5,6,7,9-tetrahydrobenzo[a]heptalen-7-yl)acetamide] | 6.34 | 12.6 | 10.4 | 17.9 | 16.9 | 6.71 | 86.6 | 0 | 0 | 0* | 0* | 0 | 0 | significant improvement in gait occurred at different time points | 102 | 69
CNC(=O)N[C@H]1CCc2cc(OC)c(OC)c(OC)c2-c2cc(C)c(OC)c(=O)cc21 [Compound 44, (S)-1-methyl-(1,2,3,10-tetramethoxy-11-methyl-9-oxo-5,6,7,9-tetrahydrobenzo[a]heptalen-7-yl)urea] | -9.72 | -8.92 | -6.13 | -1.47 | 3.17 | -6.2 | 72.6 | 0 | 0 | 0* | 0* | 0 | 0 |  | 104 | 19.7
CNC(=O)c1cc2c(ccc1=O)-c1c(cc(OC)c(OC)c1OC)CC[C@@H]2NC(C)=O [Compound 49, (S)-7-acetamido-1,2,3-trimethoxy-N-methyl-10-oxo-5,6,7,10-tetrahydrobenzo[a]heptalen-9-carboxamide] | -1.02 | 7.38 | 8.12 | 16.5 | 12.9 | 1.43 | 79.2 | 0 | 0 | 0* | 0* | 0.2 | 0 | significant improvement in gait occurred at different time points | 69.1 | 78.6
COc1cc2c(c(OC)c1OC)-c1ccc(S(N)(=O)=O)c(=O)cc1[C@@H](NC(C)=O)CC2 [Compound 69, (S)—N-[1,2,3-trimethoxy-9-oxo-10-aminosulfonyl-5,6,7,9-tetrahydrobenzo[a]heptalen-7-yl]acetamide] | 5.65 | 7.01 | 14.7 | 26.8 | 19 | 5.21 | 76.1 | 0 | 0 | 0* | 0* | 0 | 0 | significant improvement in gait occurred at different time points | 110 | 83
COc1cc2c(c(OC)c1OC)-c1ccc(-n3ccc(C)n3)c(=O)cc1[C@@H](NC(C)=O)CC2 [Compound 98, (S)—N-{1,2,3-trimethoxy-10-(3-methyl-1H-pyrazol-1-yl)-9-oxo-5,6,7,9-tetrahydrobenzo[a]heptalen-7-yl}acetamide] | 7.9 | 13.4 | 16.4 | 17.7 | 19.7 | 8.9 | 98.9 | 0 | 0 | 0* | 0* | 0.1 | 0 | significant improvement in gait occurred at different time points | 65 | 167
COc1cc2c(c(OC)c1OC)-c1ccc(-c3cnn(C)c3)c(=O)cc1[C@@H](NC(C)=O)CC2 [Compound 119, (S)—N-{1,2,3-trimethoxy-10-(1-methyl-1H-pyrazol-4-yl)-9-oxo-5,6,7,9-tetrahydrobenzo[a]heptalen-7-yl}acetamide] | 10.4 | 14.1 | 19.4 | 22.2 | 15.8 | 5.3 | 105 | 0 | 0 | 0.1* | 0.4 | 0. | 0 |  | 85.5 | 169
CNC(=O)c1ccc2c(cc1=O)[C@@H](NC(C)=O)CCc1cc(OC)c(O)c(OC)c1-2 [Compound 121, (S)-7-acetamido-2-hydroxy-1,3-dimethoxy-N-methyl-9-oxo-5,6,7,9-tetrahydrobenzo[a]heptalen-10-carboxamide] | 11.8 | 15.6 | 20.9 | 22.5 | 16.3 | 9.4 | 119 | 0 | 0 | 0.2 | 0.2 | 0 | 0 |  | 67.7 | 231
